Values after ≈ are worked out from the molar mass of the structure shown. Active and inactive are the calls of the source. The calls are words filed in the database; no cut-off is given here.
Tests used:
[1] = Binding affinity to mitogen-activated protein kinase p38 by thermal denaturation assay
THP-1 = assay: Inhibition of LPS-stimulated TNFalpha production in human THP1 cells; assay type: functional, cell-based
Blood = assay: Inhibition of LPS-stimulated TNFalpha production in human whole blood; assay type: functional, tissue-based
[2] = Solubility at pH 7.4; assay type: physicochemical; settings: buffer
Homo sapiens = species on record: Homo sapiens; assay: Protein binding in human plasma; settings: read-out: PPB (converted)
[3] = Apparent permeability across human Caco-2 cells; assay type: ADME, cell-based
[4] = target: Mitogen-activated protein kinase 14 (Homo sapiens) (UniProt Q16539); assay: Activity at MAPK p38-alpha at 3 uM
[5] = Inhibition of JNK2a
[6] = Activity at MKK1 at 3 uM
[7] = target: Mitogen-activated protein kinase 1 (Homo sapiens) (UniProt P28482); assay: Activity at ERK2 at 3 uM
[8] = target: Mitogen-activated protein kinase 8 (Homo sapiens) (UniProt P45983); assay: Activity at JNK1 at 3 uM
[9] = target: Mitogen-activated protein kinase 13 (Homo sapiens) (UniProt O15264); assay: Activity at MAPK p38delta at 3 uM
[10] = target: Ribosomal protein S6 kinase alpha-1 (Homo sapiens) (UniProt Q15418); assay: Activity at MAPKAP-K1a at 3 uM
[11] = target: MAP kinase-activated protein kinase 2 (Homo sapiens) (UniProt P49137); assay: Activity at MAPKAP-K2 at 3 uM
[12] = target: Ribosomal protein S6 kinase alpha-5 (Homo sapiens) (UniProt O75582); assay: Activity at MSK1 at 3 uM
[13] = target: MAP kinase-activated protein kinase 5 (Homo sapiens) (UniProt Q8IW41); assay: Activity at PRAK at 3 uM
[14] = Activity at PKA at 3 uM
[15] = target: Protein kinase C alpha type (Homo sapiens) (UniProt P17252); assay: Activity at PKCalpha at 3 uM
[16] = Activity at PKBdeltaPH at 3 uM
[17] = target: Serine/threonine-protein kinase Sgk1 (Homo sapiens) (UniProt O00141); assay: Activity at SGK at 3 uM
[18] = target: Ribosomal protein S6 kinase beta-1 (Homo sapiens) (UniProt P23443); assay: Activity at S6K1 at 3 uM
[19] = target: Glycogen synthase kinase-3 beta (Homo sapiens) (UniProt P49841); assay: Activity at GSK3-beta at 3 uM
[20] = target: Rho-associated protein kinase 2 (Homo sapiens) (UniProt O75116); assay: Activity at ROCK2 at 3 uM
[21] = Activity at AMPK at 3 uM
[22] = target: Serine/threonine-protein kinase Chk1 (Homo sapiens) (UniProt O14757); assay: Activity at CHK1 at 3 uM
[23] = target: Casein kinase II subunit alpha (Homo sapiens) (UniProt P68400); assay: Activity at CK2 at 3 uM
[24] = target: Cyclin-dependent kinase 2/cyclin A (Homo sapiens) (UniProt P24941+P20248+P78396); assay: Activity at CDK2/cyclin A at 3 uM; assay type: protein-complex assay
[25] = target: Casein kinase I isoform alpha (Homo sapiens) (UniProt P48729); assay: Activity at CK1 at 3 uM
[26] = target: Dual specificity tyrosine-phosphorylation-regulated kinase 1A (Homo sapiens) (UniProt Q13627); assay: Activity at DYRK1A at 3 uM
[27] = Activity at PP2A at 3 uM
[28] = target: Serine/threonine-protein kinase Nek6 (Homo sapiens) (UniProt Q9HC98); assay: Activity at NEK6 at 3 uM
[29] = target: Tyrosine-protein kinase BTK (Homo sapiens) (UniProt Q06187); assay: Activity at Btk at 10 uM
[30] = target: Ephrin type-A receptor 2 (Homo sapiens) (UniProt P29317); assay: Activity at Eck at 10 uM
[31] = target: Epidermal growth factor receptor (Homo sapiens) (UniProt P00533); assay: Activity at EGFR at 10 uM
[32] = target: Fibroblast growth factor receptor 3 (Homo sapiens) (UniProt P22607); assay: Activity at FGFR3 at 10 uM
[33] = target: Ephrin type-A receptor 3 (Homo sapiens) (UniProt P29320); assay: Activity at Hek at 10 uM; settings: HEK293
[34] = target: Hepatocyte growth factor receptor (Homo sapiens) (UniProt P08581); assay: Activity at HGFR at 10 uM
[35] = target: Insulin-like growth factor 1 receptor (Homo sapiens) (UniProt P08069); assay: Activity at IGF1R at 10 uM
[36] = target: Insulin receptor (Homo sapiens) (UniProt P06213); assay: Activity at IR at 10 uM
[37] = target: Tyrosine-protein kinase ITK/TSK (Homo sapiens) (UniProt Q08881); assay: Activity at Itk at 10 uM
[38] = target: Tyrosine-protein kinase JAK3 (Homo sapiens) (UniProt P52333); assay: Activity at JAK3 at 10 uM
[39] = target: Tyrosine-protein kinase Lyn (Homo sapiens) (UniProt P07948); assay: Activity at Lyn at 10 uM
[40] = target: Tyrosine-protein kinase SYK (Homo sapiens) (UniProt P43405); assay: Activity at Syk at 10 uM
[41] = target: Tyrosine-protein kinase TXK (Homo sapiens) (UniProt P42681); assay: Activity at TXK at 10 uM
[42] = target: Vascular endothelial growth factor receptor 1 (Homo sapiens) (UniProt P17948); assay: Activity at VEGFR1 at 10 uM
[43] = target: 3-phosphoinositide-dependent protein kinase 1 (Homo sapiens) (UniProt O15530); assay: Activity at PDK1 at 3 uM

Chain of Tyrosine-protein kinase BTK (Homo sapiens) (Q06187 whole entry): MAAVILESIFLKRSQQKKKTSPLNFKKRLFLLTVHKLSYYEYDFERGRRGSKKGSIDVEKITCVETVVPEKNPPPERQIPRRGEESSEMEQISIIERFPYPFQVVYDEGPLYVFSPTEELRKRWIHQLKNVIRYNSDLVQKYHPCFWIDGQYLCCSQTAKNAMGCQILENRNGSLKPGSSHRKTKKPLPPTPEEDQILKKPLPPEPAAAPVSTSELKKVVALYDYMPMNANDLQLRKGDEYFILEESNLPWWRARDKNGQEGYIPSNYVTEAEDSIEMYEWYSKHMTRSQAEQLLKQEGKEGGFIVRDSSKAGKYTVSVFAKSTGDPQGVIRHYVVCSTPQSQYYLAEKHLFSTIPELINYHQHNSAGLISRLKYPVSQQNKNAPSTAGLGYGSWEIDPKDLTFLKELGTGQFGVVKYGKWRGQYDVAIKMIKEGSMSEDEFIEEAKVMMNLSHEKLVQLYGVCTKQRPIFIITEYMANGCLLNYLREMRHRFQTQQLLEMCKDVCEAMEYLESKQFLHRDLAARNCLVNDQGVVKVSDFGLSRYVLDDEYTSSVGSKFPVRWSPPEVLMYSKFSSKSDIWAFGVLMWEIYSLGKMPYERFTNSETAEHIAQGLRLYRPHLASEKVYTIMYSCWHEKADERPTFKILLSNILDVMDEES
Chain of Ephrin type-A receptor 3 (Homo sapiens) (P29320 whole entry): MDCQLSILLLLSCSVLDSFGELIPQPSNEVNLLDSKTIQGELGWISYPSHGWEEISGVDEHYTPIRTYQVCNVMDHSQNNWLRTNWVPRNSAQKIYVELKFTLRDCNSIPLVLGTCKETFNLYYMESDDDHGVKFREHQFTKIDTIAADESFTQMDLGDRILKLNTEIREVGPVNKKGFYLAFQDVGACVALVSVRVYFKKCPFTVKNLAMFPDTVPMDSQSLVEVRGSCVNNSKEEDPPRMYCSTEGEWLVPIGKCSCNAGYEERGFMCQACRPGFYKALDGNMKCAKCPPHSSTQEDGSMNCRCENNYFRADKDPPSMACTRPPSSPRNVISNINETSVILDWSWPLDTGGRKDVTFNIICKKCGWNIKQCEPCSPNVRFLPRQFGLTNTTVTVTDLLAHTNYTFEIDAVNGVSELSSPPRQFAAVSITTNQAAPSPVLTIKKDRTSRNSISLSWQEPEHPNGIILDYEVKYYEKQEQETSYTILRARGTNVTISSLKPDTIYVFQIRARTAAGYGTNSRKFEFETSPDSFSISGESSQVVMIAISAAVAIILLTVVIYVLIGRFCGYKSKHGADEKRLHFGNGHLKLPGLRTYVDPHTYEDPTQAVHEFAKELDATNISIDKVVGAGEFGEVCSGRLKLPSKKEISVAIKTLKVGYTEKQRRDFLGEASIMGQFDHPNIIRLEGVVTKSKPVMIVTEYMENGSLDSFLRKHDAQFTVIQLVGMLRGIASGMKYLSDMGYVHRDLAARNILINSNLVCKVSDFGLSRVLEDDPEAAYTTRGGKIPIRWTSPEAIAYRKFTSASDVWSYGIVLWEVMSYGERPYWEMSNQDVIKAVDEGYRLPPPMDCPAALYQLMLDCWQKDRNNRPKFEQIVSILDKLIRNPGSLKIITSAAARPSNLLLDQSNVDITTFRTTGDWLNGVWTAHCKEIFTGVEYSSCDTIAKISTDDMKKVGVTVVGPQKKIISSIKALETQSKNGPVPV
Chain of Serine/threonine-protein kinase Chk1 (Homo sapiens) (O14757 whole entry): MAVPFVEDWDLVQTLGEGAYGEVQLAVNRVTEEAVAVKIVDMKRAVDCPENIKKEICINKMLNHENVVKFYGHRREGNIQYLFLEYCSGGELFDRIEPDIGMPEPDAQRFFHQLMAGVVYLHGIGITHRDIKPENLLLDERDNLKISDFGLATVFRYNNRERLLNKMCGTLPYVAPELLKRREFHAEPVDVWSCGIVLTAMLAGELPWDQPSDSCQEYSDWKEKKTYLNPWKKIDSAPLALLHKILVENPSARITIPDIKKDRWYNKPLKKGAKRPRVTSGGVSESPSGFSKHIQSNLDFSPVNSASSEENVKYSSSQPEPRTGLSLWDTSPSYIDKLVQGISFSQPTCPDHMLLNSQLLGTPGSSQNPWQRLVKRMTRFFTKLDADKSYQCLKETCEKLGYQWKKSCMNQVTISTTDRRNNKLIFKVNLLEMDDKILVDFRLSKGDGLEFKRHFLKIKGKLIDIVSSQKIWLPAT
Chain of Mitogen-activated protein kinase 8 (Homo sapiens) (P45983 whole entry): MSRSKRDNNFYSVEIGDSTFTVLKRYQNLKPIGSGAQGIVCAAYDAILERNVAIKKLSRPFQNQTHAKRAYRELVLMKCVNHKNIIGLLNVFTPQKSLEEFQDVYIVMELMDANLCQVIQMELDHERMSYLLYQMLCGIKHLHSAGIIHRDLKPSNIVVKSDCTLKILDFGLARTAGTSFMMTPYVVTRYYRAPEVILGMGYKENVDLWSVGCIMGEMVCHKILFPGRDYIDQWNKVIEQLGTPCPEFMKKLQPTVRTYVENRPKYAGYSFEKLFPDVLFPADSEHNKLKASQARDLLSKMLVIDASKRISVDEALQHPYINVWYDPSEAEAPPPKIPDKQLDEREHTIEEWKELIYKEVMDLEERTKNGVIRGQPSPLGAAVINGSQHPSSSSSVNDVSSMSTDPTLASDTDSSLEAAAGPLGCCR
Chain of Tyrosine-protein kinase TXK (Homo sapiens) (P42681 whole entry): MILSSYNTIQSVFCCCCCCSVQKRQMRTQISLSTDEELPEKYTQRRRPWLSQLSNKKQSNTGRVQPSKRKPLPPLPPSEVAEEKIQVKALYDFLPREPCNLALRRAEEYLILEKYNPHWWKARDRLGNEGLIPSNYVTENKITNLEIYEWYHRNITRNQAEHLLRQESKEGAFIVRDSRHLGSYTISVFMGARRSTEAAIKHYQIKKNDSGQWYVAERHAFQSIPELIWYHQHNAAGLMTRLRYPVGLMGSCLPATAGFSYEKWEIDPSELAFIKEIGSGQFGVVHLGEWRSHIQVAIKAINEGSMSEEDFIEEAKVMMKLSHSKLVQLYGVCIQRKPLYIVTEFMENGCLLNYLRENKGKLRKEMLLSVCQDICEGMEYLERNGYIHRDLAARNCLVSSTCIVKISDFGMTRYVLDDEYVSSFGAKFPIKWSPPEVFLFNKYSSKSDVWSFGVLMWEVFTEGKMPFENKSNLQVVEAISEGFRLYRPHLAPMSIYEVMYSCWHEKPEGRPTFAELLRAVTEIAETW
Chain of Insulin-like growth factor 1 receptor (Homo sapiens) (P08069 31-736 limits assumed): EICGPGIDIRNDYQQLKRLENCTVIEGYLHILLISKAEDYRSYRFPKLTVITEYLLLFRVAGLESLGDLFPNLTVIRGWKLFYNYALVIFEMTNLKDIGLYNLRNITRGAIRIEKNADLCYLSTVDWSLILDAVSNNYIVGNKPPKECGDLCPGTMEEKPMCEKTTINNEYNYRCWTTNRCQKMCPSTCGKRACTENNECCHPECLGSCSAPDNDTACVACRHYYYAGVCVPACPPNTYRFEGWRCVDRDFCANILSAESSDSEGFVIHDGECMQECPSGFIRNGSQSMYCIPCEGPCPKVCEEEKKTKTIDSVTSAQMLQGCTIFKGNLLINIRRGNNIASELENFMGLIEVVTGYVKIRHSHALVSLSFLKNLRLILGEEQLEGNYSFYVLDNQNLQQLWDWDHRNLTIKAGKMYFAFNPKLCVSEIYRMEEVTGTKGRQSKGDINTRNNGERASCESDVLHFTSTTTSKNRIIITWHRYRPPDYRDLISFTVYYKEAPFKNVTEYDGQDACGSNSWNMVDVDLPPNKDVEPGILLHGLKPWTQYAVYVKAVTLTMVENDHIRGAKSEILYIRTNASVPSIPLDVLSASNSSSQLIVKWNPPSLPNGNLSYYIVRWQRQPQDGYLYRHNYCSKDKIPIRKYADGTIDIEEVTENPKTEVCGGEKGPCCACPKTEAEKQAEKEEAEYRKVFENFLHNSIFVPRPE
Chain of Insulin-like growth factor 1 receptor (Homo sapiens) (P08069 741-1367 limits assumed): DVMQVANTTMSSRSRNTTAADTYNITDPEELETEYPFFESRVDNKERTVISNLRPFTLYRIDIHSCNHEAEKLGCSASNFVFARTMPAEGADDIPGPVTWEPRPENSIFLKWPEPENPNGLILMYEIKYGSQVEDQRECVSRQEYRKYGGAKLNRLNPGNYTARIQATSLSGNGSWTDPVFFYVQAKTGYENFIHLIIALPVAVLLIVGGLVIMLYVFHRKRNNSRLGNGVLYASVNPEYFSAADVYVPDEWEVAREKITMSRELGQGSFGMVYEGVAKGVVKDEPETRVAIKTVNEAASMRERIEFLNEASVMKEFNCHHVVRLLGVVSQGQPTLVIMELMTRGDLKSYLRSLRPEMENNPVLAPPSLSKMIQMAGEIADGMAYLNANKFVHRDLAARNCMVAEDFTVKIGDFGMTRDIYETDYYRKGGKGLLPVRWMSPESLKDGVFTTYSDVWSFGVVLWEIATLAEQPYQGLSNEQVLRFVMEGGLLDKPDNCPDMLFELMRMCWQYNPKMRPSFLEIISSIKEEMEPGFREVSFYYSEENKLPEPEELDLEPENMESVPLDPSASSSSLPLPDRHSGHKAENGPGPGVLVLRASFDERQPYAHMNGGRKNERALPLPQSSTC
Chain of Tyrosine-protein kinase Lyn (Homo sapiens) (P07948 2-512 limits assumed): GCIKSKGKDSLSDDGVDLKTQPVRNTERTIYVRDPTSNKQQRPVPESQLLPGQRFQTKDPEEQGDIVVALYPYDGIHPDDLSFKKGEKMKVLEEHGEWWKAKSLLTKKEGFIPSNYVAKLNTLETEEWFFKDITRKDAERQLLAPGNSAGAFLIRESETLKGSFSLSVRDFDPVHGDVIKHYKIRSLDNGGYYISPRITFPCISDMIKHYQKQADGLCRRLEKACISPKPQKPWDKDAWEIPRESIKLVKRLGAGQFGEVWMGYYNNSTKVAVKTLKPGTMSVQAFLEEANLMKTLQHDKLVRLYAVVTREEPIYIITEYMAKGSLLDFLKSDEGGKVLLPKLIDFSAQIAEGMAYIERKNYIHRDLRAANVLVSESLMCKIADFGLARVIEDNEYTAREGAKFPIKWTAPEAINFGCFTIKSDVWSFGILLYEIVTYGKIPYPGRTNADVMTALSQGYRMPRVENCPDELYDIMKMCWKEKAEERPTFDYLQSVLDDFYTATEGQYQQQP

Structure (SMILES): COc1c(NC(=O)c2ccc(C)c(N3C=C(C(=O)NC(C)(C)C)NN3)c2)cc(C(C)(C)C)cc1NS(C)(=O)=O
- Tm [1]: 56.8 °C
- IC50 (THP-1): 0.084 µM
- IC50 (Blood): > 15 µM

Structure (SMILES): COc1c(NC(=O)c2ccc(C)c(N3C=C(C(=O)NC4CC4)NN3)c2)cc(C(C)(C)C)cc1NS(C)(=O)=O
- Tm [1]: 56.6 °C
- IC50 (THP-1): 0.11 µM
- IC50 (Blood): 2.8 µM

Structure (SMILES): COc1c(NC(=O)c2ccc(C)c(N3C=C(C(=O)N[C@@H](C)c4ccccc4)NN3)c2)cc(C(C)(C)C)cc1NS(C)(=O)=O
- Tm [1]: 60.1 °C
- IC50 (THP-1): 0.027 µM
- IC50 (Blood): 2.6 µM

Structure (SMILES): COc1c(NC(=O)c2ccc(C)c(N3C=C(C(=O)NCc4ccccc4)NN3)c2)cc(C(C)(C)C)cc1NS(C)(=O)=O
- Tm [1]: 59.7 °C
- IC50 (THP-1): 0.04 µM
- IC50 (Blood): 0.93 µM

Structure (SMILES): COc1c(NC(=O)c2ccc(C)c(N3C=C(C(=O)NCC(C)(C)C)NN3)c2)cc(C(C)(C)C)cc1NS(C)(=O)=O
- Tm [1]: 60.5 °C
- IC50 (THP-1): 0.014 µM
- IC50 (Blood): 0.26 µM
- solubility [2]: 0.1 µg/mL (≈ 0.175 µM)
- fraction unbound (Homo sapiens): 0.08

Structure (SMILES): COc1c(NC(=O)c2ccc(C)c(N3C=C(C(=O)NCC(C)(C)CN(C)C)NN3)c2)cc(C(C)(C)C)cc1NS(C)(=O)=O
- Tm [1]: 57.3 °C
- IC50 (THP-1): 0.022 µM
- IC50 (Blood): 0.083 µM
- solubility [2]: 13.9 µg/mL (≈ 22.6 µM)
- Papp [3]: 13 ×10⁻⁶ cm/s
- Activity [4]: inactive
- IC50 [5]: 1.1 µM
- Activity [6]: inactive
- Activity [7]: inactive
- Activity [8]: inactive
- Activity [9]: inactive
- Activity [10]: inactive
- Activity [11]: inactive
- Activity [12]: inactive
- Activity [13]: inactive
- Activity [14]: inactive
- Activity [15]: inactive
- Activity [16]: inactive
- Activity [17]: inactive
- Activity [18]: inactive
- Activity [19]: inactive
- Activity [20]: inactive
- Activity [21]: inactive
- Activity [22]: inactive
- Activity [23]: inactive
- Activity [24]: inactive
- Activity [25]: inactive
- Activity [26]: inactive
- Activity [27]: inactive
- Activity [28]: inactive
- Activity [29]: inactive
- Activity [30]: inactive
- Activity [31]: inactive
- Activity [32]: inactive
- Activity [33]: inactive
- Activity [34]: inactive
- Activity [35]: inactive
- Activity [36]: inactive
- Activity [37]: inactive
- Activity [38]: inactive
- Activity [39]: inactive
- Activity [40]: inactive
- Activity [41]: inactive
- Activity [42]: inactive
- Activity [43]: inactive
- fraction unbound (Homo sapiens): 0.34

Structure (SMILES): COc1c(NC(=O)c2ccc(C)c(N3C=C(C(=O)NCC(C)(C)N(C)C)NN3)c2)cc(C(C)(C)C)cc1NS(C)(=O)=O
- Tm [1]: 56.1 °C
- IC50 (THP-1): 0.14 µM
- IC50 (Blood): 0.79 µM

Structure (SMILES): COc1c(NC(=O)c2ccc(C)c(N3C=C(C(=O)N(C)Cc4ccccc4)NN3)c2)cc(C(C)(C)C)cc1NS(C)(=O)=O
- Tm [1]: 57.8 °C
- IC50 (THP-1): 0.029 µM
- IC50 (Blood): > 15 µM

Structure (SMILES): COc1c(NC(=O)c2ccc(C)c(N3C=C(C(=O)NCC4CCN(C)CC4)NN3)c2)cc(C(C)(C)C)cc1NS(C)(=O)=O
- Tm [1]: 57.5 °C
- IC50 (THP-1): 0.2 µM
- IC50 (Blood): 4.5 µM

Structure (SMILES): COc1c(NC(=O)c2ccc(C)c(N3C=C(C(=O)N[C@H](CN(C)C)c4ccccc4)NN3)c2)cc(C(C)(C)C)cc1NS(C)(=O)=O
- Tm [1]: 65.1 °C
- IC50 (THP-1): 0.035 µM
- IC50 (Blood): 0.5 µM

Structure (SMILES): COc1c(NC(=O)c2ccc(C)c(N3C=C(C(=O)N[C@@H](C)C(C)(C)C)NN3)c2)cc(C(C)(C)C)cc1NS(C)(=O)=O
- Tm [1]: 60 °C
- IC50 (THP-1): 0.035 µM
- IC50 (Blood): 2.6 µM

Structure (SMILES): COc1c(NC(=O)c2ccc(C)c(N3C=C(C(=O)N[C@H](C)C(C)(C)C)NN3)c2)cc(C(C)(C)C)cc1NS(C)(=O)=O
- Tm [1]: 61.6 °C
- IC50 (THP-1): 0.014 µM
- IC50 (Blood): 1 µM

Structure (SMILES): COc1c(NC(=O)c2ccc(C)c(N3C=C(C(=O)NCC(C)(C)O)NN3)c2)cc(C(C)(C)C)cc1NS(C)(=O)=O
- Tm [1]: 59.9 °C
- IC50 (THP-1): 0.018 µM
- IC50 (Blood): 0.21 µM
- solubility [2]: 2 µg/mL (≈ 3.48 µM)
- Papp [3]: 7.4 ×10⁻⁶ cm/s
- fraction unbound (Homo sapiens): 0.34

Structure (SMILES): COc1c(NC(=O)c2ccc(C)c(N3C=C(C(=O)NCC4CCCCC4)NN3)c2)cc(C(C)(C)C)cc1NS(C)(=O)=O
- Tm [1]: 56.2 °C
- IC50 (THP-1): 0.014 µM
- IC50 (Blood): 0.26 µM

Structure (SMILES): COc1c(NC(=O)c2ccc(C)c(N3C=C(C(=O)NCc4ccncc4)NN3)c2)cc(C(C)(C)C)cc1NS(C)(=O)=O
- Tm [1]: 58.8 °C
- IC50 (THP-1): 0.074 µM
- IC50 (Blood): 0.72 µM

Structure (SMILES): CNC(=O)C1=CN(c2cc(C(=O)Nc3cc(C(C)(C)C)cc(NS(C)(=O)=O)c3OC)ccc2C)NN1
- Tm [1]: 57.3 °C
- IC50 (THP-1): 0.11 µM
- IC50 (Blood): 8.4 µM

Structure (SMILES): COc1c(NC(=O)c2ccc(C)c(N3C=C(C(=O)N[C@H](C)c4ccccc4)NN3)c2)cc(C(C)(C)C)cc1NS(C)(=O)=O
- Tm [1]: 64.6 °C
- IC50 (THP-1): 0.013 µM
- IC50 (Blood): 0.47 µM

Structure (SMILES): Cc1ccc(-n2nc(C(C)(C)C)cc2NC(=O)Nc2ccc(OCCN3CCOCC3)c3ccccc23)cc1 [DORAMAPIMOD]
- Tm [1]: 63.5 °C
- solubility [2]: 1 µg/mL (≈ 1.9 µM)
- Papp [3]: 10 ×10⁻⁶ cm/s
- IC50 [5]: 0.006 µM

Structure (SMILES): COc1c(NC(=O)c2ccc(C)c(N3C=C(C(=O)N[C@@H](C)C4CCCCC4)NN3)c2)cc(C(C)(C)C)cc1NS(C)(=O)=O
- Tm [1]: 56.9 °C
- IC50 (THP-1): 0.066 µM
- IC50 (Blood): 5.6 µM

Structure (SMILES): COc1c(NC(=O)c2ccc(C)c(N3C=C(C(=O)NCC4CCCN(C)C4)NN3)c2)cc(C(C)(C)C)cc1NS(C)(=O)=O (stereo not given)
- Tm [1]: 57.4 °C
- IC50 (THP-1): 0.028 µM
- IC50 (Blood): 0.3 µM

Structure (SMILES): COc1c(NC(=O)c2ccc(C)c(N3C=C(C(=O)NCc4cccnc4)NN3)c2)cc(C(C)(C)C)cc1NS(C)(=O)=O
- Tm [1]: 57.9 °C
- IC50 (THP-1): 0.038 µM
- IC50 (Blood): 0.27 µM

Structure (SMILES): COc1c(NC(=O)c2ccc(C)c(N3C=C(C(=O)N[C@H](C)C4CCCCC4)NN3)c2)cc(C(C)(C)C)cc1NS(C)(=O)=O
- Tm [1]: 60.8 °C
- IC50 (THP-1): 0.016 µM
- IC50 (Blood): 2.8 µM
